System: Crude diglycosidase
Assay: Examination of pH in the conversion into isoflavone aglycons by diglycosidase using soybean materials
Type: biochemical, Penicillium multicolor IAM7153
Details: for existing ratio of aglycon of each isoflavone family / Decomposition efficiency of glycitin family in roasted soy flour / Decomposition efficiency of glycitin family in soymilk: 55° C.
In short: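 Each soybean material (50 mg) is suspended and set to a pH between 2 and 11. Crude diglycosidase, adjusted to 1.88 AU/mL in enzyme solution of the same pH, is added, and the mixture is incubated at 55° C. Ethanol is added at 0, 1, 3 and 6 h, then supernatants go to HPLC.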

[1] = pH6.6, heat treatment of enzyme: no, reaction time 0 h
[2] = pH6.6, heat treatment of enzyme: no, reaction time 1 h
[3] = pH6.6, heat treatment of enzyme: no, reaction time 3 h
[4] = pH6.6, heat treatment of enzyme: no, reaction time 6 h
[5] = pH6.6, heat treatment of enzyme: yes, reaction time 6 h

existing ratio of aglycon of each isoflavone family (concentrated soybean protein, pH 3.7 for 6 hours): 78% | existing ratio of aglycon of each isoflavone family (defatted soybean, pH 3.4 for 6 hours): 68% | Decomposition efficiency of glycitin family in concentrated soybean protein (pH1.6, heat treatment of enzyme: no, reaction time 0 h): 11.3% | Decomposition efficiency of glycitin family in concentrated soybean protein (pH1.6, heat treatment of enzyme: no, reaction time 1 h): 11.6% | Decomposition efficiency of glycitin family in concentrated soybean protein (pH1.6, heat treatment of enzyme: no, reaction time 3 h): 11.7% | Decomposition efficiency of glycitin family in concentrated soybean protein (pH1.6, heat treatment of enzyme: no, reaction time 6 h): 11.7% | Decomposition efficiency of glycitin family in concentrated soybean protein (pH1.6, heat treatment of enzyme: yes, reaction time 6 h): 10.8% | Decomposition efficiency of glycitin family in roasted soy flour (pH2, heat treatment of enzyme no, reaction time 0 h): 7.9 | Decomposition efficiency of glycitin family in roasted soy flour (pH2, heat treatment of enzyme no, reaction time 1 h): 9.4 | Decomposition efficiency of glycitin family in roasted soy flour (pH2, heat treatment of enzyme no, reaction time 3 h): 9.5 | Decomposition efficiency of glycitin family in roasted soy flour (pH2, heat treatment of enzyme no, reaction time 6 h): 10.1 | Decomposition efficiency of glycitin family in roasted soy flour (pH2, heat treatment of enzyme yes, reaction time 6 h): 10.4 | Decomposition efficiency of glycitin family in soymilk (pH2.3, heat treatment of enzyme no, reaction time 0 h): 7.2 | Decomposition efficiency of glycitin family in soymilk (pH2.3, heat treatment of enzyme no, reaction time 1 h): 48.7 | Decomposition efficiency of glycitin family in soymilk (pH2.3, heat treatment of enzyme no, reaction time 3 h): 52.3 | Decomposition efficiency of glycitin family in soymilk (pH2.3, heat treatment of enzyme no, reaction time 6 h): 53.5 | Decomposition efficiency of glycitin family in soymilk (pH2.3, heat treatment of enzyme yes, reaction time 6 h): 6.9 | Decomposition efficiency of glycitin family in defatted soybean (pH2.6, heat treatment of enzyme: no, reaction time 0 h): not detected | Decomposition efficiency of glycitin family in defatted soybean (pH2.6, heat treatment of enzyme: no, reaction time 1 h): not detected | Decomposition efficiency of glycitin family in defatted soybean (pH2.6, heat treatment of enzyme: no, reaction time 3 h): not detected | Decomposition efficiency of glycitin family in defatted soybean (pH2.6, heat treatment of enzyme: no, reaction time 6 h): not detected | Decomposition efficiency of glycitin family in defatted soybean (pH2.6, heat treatment of enzyme: yes, reaction time 6 h): not detected | Decomposition efficiency of glycitin family in concentrated soybean protein (pH2.7, heat treatment of enzyme: no, reaction time 0 h): 11.3% | Decomposition efficiency of glycitin family in concentrated soybean protein (pH2.7, heat treatment of enzyme: no, reaction time 1 h): 25.0% | Decomposition efficiency of glycitin family in concentrated soybean protein (pH2.7, heat treatment of enzyme: no, reaction time 3 h): 25.7% | Decomposition efficiency of glycitin family in concentrated soybean protein (pH2.7, heat treatment of enzyme: no, reaction time 6 h): 29.2% | Decomposition efficiency of glycitin family in concentrated soybean protein (pH2.7, heat treatment of enzyme: yes, reaction time 6 h): 11.5% | Decomposition efficiency of glycitin family in roasted soy flour (pH3, heat treatment of enzyme no, reaction time 0 h): 7.9 | Decomposition efficiency of glycitin family in roasted soy flour (pH3, heat treatment of enzyme no, reaction time 1 h): 61.3 | Decomposition efficiency of glycitin family in roasted soy flour (pH3, heat treatment of enzyme no, reaction time 3 h): 69.2 | Decomposition efficiency of glycitin family in roasted soy flour (pH3, heat treatment of enzyme no, reaction time 6 h): 68.3 | Decomposition efficiency of glycitin family in roasted soy flour (pH3, heat treatment of enzyme yes, reaction time 6 h): 9.3 | Decomposition efficiency of glycitin family in defatted soybean (pH3.4, heat treatment of enzyme: no, reaction time 0 h): not detected | Decomposition efficiency of glycitin family in defatted soybean (pH3.4, heat treatment of enzyme: no, reaction time 1 h): not detected | Decomposition efficiency of glycitin family in defatted soybean (pH3.4, heat treatment of enzyme: no, reaction time 3 h): not detected | Decomposition efficiency of glycitin family in defatted soybean (pH3.4, heat treatment of enzyme: no, reaction time 6 h): not detected | Decomposition efficiency of glycitin family in defatted soybean (pH3.4, heat treatment of enzyme: yes, reaction time 6 h): not detected | Decomposition efficiency of glycitin family in soymilk (pH3.5, heat treatment of enzyme no, reaction time 0 h): 7.2 | Decomposition efficiency of glycitin family in soymilk (pH3.5, heat treatment of enzyme no, reaction time 1 h): 78.1 | Decomposition efficiency of glycitin family in soymilk (pH3.5, heat treatment of enzyme no, reaction time 3 h): 100.0 | Decomposition efficiency of glycitin family in soymilk (pH3.5, heat treatment of enzyme no, reaction time 6 h): 100.0 | Decomposition efficiency of glycitin family in soymilk (pH3.5, heat treatment of enzyme yes, reaction time 6 h): 7.6 | Decomposition efficiency of glycitin family in concentrated soybean protein (pH3.7, heat treatment of enzyme: no, reaction time 0 h): 11.1% | Decomposition efficiency of glycitin family in concentrated soybean protein (pH3.7, heat treatment of enzyme: no, reaction time 1 h): 66.7% | Decomposition efficiency of glycitin family in concentrated soybean protein (pH3.7, heat treatment of enzyme: no, reaction time 3 h): 73.5% | Decomposition efficiency of glycitin family in concentrated soybean protein (pH3.7, heat treatment of enzyme: no, reaction time 6 h): 77.5% | Decomposition efficiency of glycitin family in concentrated soybean protein (pH3.7, heat treatment of enzyme: yes, reaction time 6 h): 11.3% | Decomposition efficiency of glycitin family in roasted soy flour (pH4, heat treatment of enzyme no, reaction time 0 h): 8.6 | Decomposition efficiency of glycitin family in roasted soy flour (pH4, heat treatment of enzyme no, reaction time 1 h): 81.2 | Decomposition efficiency of glycitin family in roasted soy flour (pH4, heat treatment of enzyme no, reaction time 3 h): 91.8 | Decomposition efficiency of glycitin family in roasted soy flour (pH4, heat treatment of enzyme no, reaction time 6 h): 100.0 | Decomposition efficiency of glycitin family in roasted soy flour (pH4, heat treatment of enzyme yes, reaction time 6 h): 9.0 | Decomposition efficiency of glycitin family in soymilk (pH4.8, heat treatment of enzyme no, reaction time 0 h): 6.2 | Decomposition efficiency of glycitin family in soymilk (pH4.8, heat treatment of enzyme no, reaction time 1 h): 63.0 | Decomposition efficiency of glycitin family in soymilk (pH4.8, heat treatment of enzyme no, reaction time 3 h): 78.9 | Decomposition efficiency of glycitin family in soymilk (pH4.8, heat treatment of enzyme no, reaction time 6 h): 91.7 | Decomposition efficiency of glycitin family in soymilk (pH4.8, heat treatment of enzyme yes, reaction time 6 h): 6.5 | Decomposition efficiency of glycitin family in defatted soybean (pH4.8, heat treatment of enzyme: no, reaction time 0 h): 36.0% | Decomposition efficiency of glycitin family in defatted soybean (pH4.8, heat treatment of enzyme: no, reaction time 1 h): 59.9% | Decomposition efficiency of glycitin family in defatted soybean (pH4.8, heat treatment of enzyme: no, reaction time 3 h): 62.5% | Decomposition efficiency of glycitin family in defatted soybean (pH4.8, heat treatment of enzyme: no, reaction time 6 h): 68.1% | Decomposition efficiency of glycitin family in defatted soybean (pH4.8, heat treatment of enzyme: yes, reaction time 6 h): 43.8% | Decomposition efficiency of glycitin family in roasted soy flour (pH5, heat treatment of enzyme no, reaction time 0 h): 8.6 | Decomposition efficiency of glycitin family in roasted soy flour (pH5, heat treatment of enzyme no, reaction time 1 h): 77.1 | Decomposition efficiency of glycitin family in roasted soy flour (pH5, heat treatment of enzyme no, reaction time 3 h): 93.5 | Decomposition efficiency of glycitin family in roasted soy flour (pH5, heat treatment of enzyme no, reaction time 6 h): 100.0 | Decomposition efficiency of glycitin family in roasted soy flour (pH5, heat treatment of enzyme yes, reaction time 6 h): 9.4 | Decomposition efficiency of glycitin family in concentrated soybean protein (pH5.1, heat treatment of enzyme: no, reaction time 0 h): 11.1% | Decomposition efficiency of glycitin family in concentrated soybean protein (pH5.1, heat treatment of enzyme: no, reaction time 1 h): 62.1% | Decomposition efficiency of glycitin family in concentrated soybean protein (pH5.1, heat treatment of enzyme: no, reaction time 3 h): 73.4% | Decomposition efficiency of glycitin family in concentrated soybean protein (pH5.1, heat treatment of enzyme: no, reaction time 6 h): 78.5% | Decomposition efficiency of glycitin family in concentrated soybean protein (pH5.1, heat treatment of enzyme: yes, reaction time 6 h): 11.5% | Decomposition efficiency of glycitin family in defatted soybean (pH5.4, heat treatment of enzyme: no, reaction time 0 h): 36.0% | Decomposition efficiency of glycitin family in defatted soybean (pH5.4, heat treatment of enzyme: no, reaction time 1 h): 54.9% | Decomposition efficiency of glycitin family in defatted soybean (pH5.4, heat treatment of enzyme: no, reaction time 3 h): not detected | Decomposition efficiency of glycitin family in defatted soybean (pH5.4, heat treatment of enzyme: no, reaction time 6 h): 67.7% | Decomposition efficiency of glycitin family in defatted soybean (pH5.4, heat treatment of enzyme: yes, reaction time 6 h): 60.7% | Decomposition efficiency of glycitin family in soymilk (pH6.2, heat treatment of enzyme no, reaction time 0 h): 6.2 | Decomposition efficiency of glycitin family in soymilk (pH6.2, heat treatment of enzyme no, reaction time 1 h): 53.6 | Decomposition efficiency of glycitin family in soymilk (pH6.2, heat treatment of enzyme no, reaction time 3 h): 65.5 | Decomposition efficiency of glycitin family in soymilk (pH6.2, heat treatment of enzyme no, reaction time 6 h): 70.4 | Decomposition efficiency of glycitin family in soymilk (pH6.2, heat treatment of enzyme yes, reaction time 6 h): 8.2 | Decomposition efficiency of glycitin family in roasted soy flour (pH6.5, heat treatment of enzyme no, reaction time 0 h): 8.8 | Decomposition efficiency of glycitin family in roasted soy flour (pH6.5, heat treatment of enzyme no, reaction time 1 h): 65.0 | Decomposition efficiency of glycitin family in roasted soy flour (pH6.5, heat treatment of enzyme no, reaction time 3 h): 80.3 | Decomposition efficiency of glycitin family in roasted soy flour (pH6.5, heat treatment of enzyme no, reaction time 6 h): 88.1 | Decomposition efficiency of glycitin family in roasted soy flour (pH6.5, heat treatment of enzyme yes, reaction time 6 h): 9.8 | Decomposition efficiency of glycitin family in concentrated soybean protein [1]: 11.3% | Decomposition efficiency of glycitin family in defatted soybean [1]: 60.4% | Decomposition efficiency of glycitin family in concentrated soybean protein [2]: 42.2% | Decomposition efficiency of glycitin family in defatted soybean [2]: 47.1% | Decomposition efficiency of glycitin family in concentrated soybean protein [3]: 60.3% | Decomposition efficiency of glycitin family in defatted soybean [3]: 46.4% | Decomposition efficiency of glycitin family in concentrated soybean protein [4]: 68.1% | Decomposition efficiency of glycitin family in defatted soybean [4]: 41.9% | Decomposition efficiency of glycitin family in concentrated soybean protein [5]: 11.1% | Decomposition efficiency of glycitin family in defatted soybean [5]: 49.7% | Decomposition efficiency of glycitin family in soymilk (pH7.2, heat treatment of enzyme no, reaction time 0 h): 6.1 | Decomposition efficiency of glycitin family in soymilk (pH7.2, heat treatment of enzyme no, reaction time 1 h): 51.2 | Decomposition efficiency of glycitin family in soymilk (pH7.2, heat treatment of enzyme no, reaction time 3 h): 53.8 | Decomposition efficiency of glycitin family in soymilk (pH7.2, heat treatment of enzyme no, reaction time 6 h): 58.4 | Decomposition efficiency of glycitin family in soymilk (pH7.2, heat treatment of enzyme yes, reaction time 6 h): 5.6 | Decomposition efficiency of glycitin family in defatted soybean (pH7.8, heat treatment of enzyme: no, reaction time 0 h): 33.2% | Decomposition efficiency of glycitin family in defatted soybean (pH7.8, heat treatment of enzyme: no, reaction time 1 h): 42.5% | Decomposition efficiency of glycitin family in defatted soybean (pH7.8, heat treatment of enzyme: no, reaction time 3 h): 46.8% | Decomposition efficiency of glycitin family in defatted soybean (pH7.8, heat treatment of enzyme: no, reaction time 6 h): 50.9% | Decomposition efficiency of glycitin family in defatted soybean (pH7.8, heat treatment of enzyme: yes, reaction time 6 h): 44.2% | Decomposition efficiency of glycitin family in roasted soy flour (pH8.5, heat treatment of enzyme no, reaction time 0 h): 9.6 | Decomposition efficiency of glycitin family in roasted soy flour (pH8.5, heat treatment of enzyme no, reaction time 1 h): 28.2 | Decomposition efficiency of glycitin family in roasted soy flour (pH8.5, heat treatment of enzyme no, reaction time 3 h): 40.1 | Decomposition efficiency of glycitin family in roasted soy flour (pH8.5, heat treatment of enzyme no, reaction time 6 h): 47.4 | Decomposition efficiency of glycitin family in roasted soy flour (pH8.5, heat treatment of enzyme yes, reaction time 6 h): 9.1 | Decomposition efficiency of glycitin family in concentrated soybean protein (pH8.6, heat treatment of enzyme: no, reaction time 0 h): 11.7% | Decomposition efficiency of glycitin family in concentrated soybean protein (pH8.6, heat treatment of enzyme: no, reaction time 1 h): 15.4% | Decomposition efficiency of glycitin family in concentrated soybean protein (pH8.6, heat treatment of enzyme: no, reaction time 3 h): 21.0% | Decomposition efficiency of glycitin family in concentrated soybean protein (pH8.6, heat treatment of enzyme: no, reaction time 6 h): 30.9% | Decomposition efficiency of glycitin family in concentrated soybean protein (pH8.6, heat treatment of enzyme: yes, reaction time 6 h): 11.3% | Decomposition efficiency of glycitin family in soymilk (pH11.6, heat treatment of enzyme no, reaction time 0 h): 6.2 | Decomposition efficiency of glycitin family in soymilk (pH11.6, heat treatment of enzyme no, reaction time 1 h): 49.6 | Decomposition efficiency of glycitin family in soymilk (pH11.6, heat treatment of enzyme no, reaction time 3 h): 53.5 | Decomposition efficiency of glycitin family in soymilk (pH11.6, heat treatment of enzyme no, reaction time 6 h): 56.0 | Decomposition efficiency of glycitin family in soymilk (pH11.6, heat treatment of enzyme yes, reaction time 6 h): 5.8 | existing ratio of aglycon of each isoflavone family (roasted soy flour, pH 4 for 6 hours): 100% | existing ratio of aglycon of each isoflavone family (soymilk, pH 3.5 for 6 hours): 100%
SMILES: COc1cc2c(=O)c(-c3ccc(O)cc3)coc2cc1O [glycitein]
